From patent US20060252786A1, “Nicotinic-opioid synergy for analgesia” (priority 2004, published 2006)
Values joined by “and” are separate entries in the source; they are usually repeats but may differ in a detail not shown here. Equal entries are not always repeated. Where two headings read alike, the source gives them in different places.

Legend:
[1] = 3 mg intranasally, non-smoking volunteers; cited from earlier work
[2] = nicotine nasal spray 3 mg, PCA morphine
post-incisional pain = test system: post-incisional pain
Description: Each of these studies will be nearly identical to the original study (FIG. 5). However, the studies will look at the following dosing paradigms: • 1. Animals will be randomized to receive nicotine 0.25 to 1.5 mg/kg, or placebo 2 hours prior to the hind-paw surgery, or 2 hours after the hind paw surgery (reproducing the original study). […] The doses will be determined in a dose-finding portion of the interaction study. The interaction surface will be modeled and tested to identify any benefit from preoperative administration of nicotine. • 2. […] The study will help to document whether there is any benefit to maintaining nicotine with a constant infusion vs. a simple bolus injection. Expected Results and Potential Issues

[3] = Description: (§1) This study was a randomized, double blind clinical trial with a 24 hour data collection period. The study was approved by the institutional review board at Columbia University. Written informed consent was obtained from all patients. Women between the ages of 18 and 50, scheduled to have uterine surgery (either myomectomy or hysterectomy) through a low transverse incision were eligible to be included. We chose to only study women in this preliminary study because animal studies have identified gender differences in nicotine's analgesic action 10-12. Patients were excluded who had smoked during the past year, had preexisting pain syndromes, hypertension, or any history of cardiovascular disease. All patients were American Society of Anesthesiologists class 1 or 2. The patients were instructed before surgery that they would be asked about their pain with a numerical analog score where 0 is no pain and 10 is the worst pain that they could imagine. […] No other medications were given in the preoperative period.
All patients were given a standardized anesthetic as follows: anesthetic premedication was administered in the operating room consisting of 1-2 μg/kg fentanyl and 1 mg vecuronium. Anesthesia was induced with propofol 2 mg/kg and succinylcholine 2 mg/kg. After intubation of the trachea, anesthesia was maintained with a fentanyl infusion of 1-2 μg/kg/hr and isoflurane titrated to adequate anesthetic depth by the clinical anesthesiologist, who was not aware of the treatment group. Muscle relaxation was effected with vecuronium. All patients were given dolasetron 12.5 mg prophylactically to prevent nausea and vomiting. At the completion of surgery, the anesthesiologist was given an opaque sealed container with either a nicotine nasal spray (3 mg—Nicotrol NS, Pharmacia, Peapack, N.J.) or saline nasal spray prepared according to a random number table by the research pharmacy. The study drug was administered by the anesthesiologist as 3 jets in each nostril (3 mg nicotine or an equal volume of saline) at a 45 degree angle after the muscle relaxant was reversed and while the surgeon was closing the fascia. […]
In previous studies using analog pain scores the standard deviation was approximately 2 numerical analog pain units. We calculated that in order to detect a difference of 2 numerical analog pain units, with α=0.05 and 80% power we would need to enroll 17 patients per group (StatMate, GraphPad software, San Diego, Calif., USA). […] The change in pain scores over time was determined with a One Way Analysis of Variance for repeated measures, where time was considered a continuous variable (Analyse-it for Microsoft Excel; Analyse-it Software, ltd., Leeds, England). […]

[4] = remark: listed apart in the source
Description: (§2) All patients were given a standardized anesthetic as follows: anesthetic premedication was administered in the operating room consisting of 1-2 μg/kg fentanyl and 1 mg vecuronium. Anesthesia was induced with propofol 2 mg/kg and succinylcholine 2 mg/kg. After intubation of the trachea, anesthesia was maintained with a fentanyl infusion of 1-2 μg/kg/hr and isoflurane titrated to adequate anesthetic depth by the clinical anesthesiologist, who was not aware of the treatment group. Muscle relaxation was effected with vecuronium. All patients were given dolasetron 12.5 mg prophylactically to prevent nausea and vomiting. At the completion of surgery, the anesthesiologist was given an opaque sealed container with either a nicotine nasal spray (3 mg—Nicotrol NS, Pharmacia, Peapack, N.J.) or saline nasal spray prepared according to a random number table by the research pharmacy. The study drug was administered by the anesthesiologist as 3 jets in each nostril (3 mg nicotine or an equal volume of saline) at a 45 degree angle after the muscle relaxant was reversed and while the surgeon was closing the fascia.
Blood pressure was measured with a non-invasive automatic oscillometric blood pressure cuff every 5 minutes for the first hour (Agilent Technologies, Andover, Mass.). Heart rate was monitored continuously with a pulse oximeter and electrocardiographic leads and recorded every five minutes for the first hour (Agilent Technologies, Andover, Mass.). All testing was conducted by the same investigator (D.D.). Both the investigator recording data and the nurse administering medication were blinded to treatment group.
(§3) In previous studies using analog pain scores the standard deviation was approximately 2 numerical analog pain units. We calculated that in order to detect a difference of 2 numerical analog pain units, with α=0.05 and 80% power we would need to enroll 17 patients per group (StatMate, GraphPad software, San Diego, Calif., USA). 10 patients were enrolled per group as a pilot study requested by our IRB. […] The change in pain scores over time was determined with a One Way Analysis of Variance for repeated measures, where time was considered a continuous variable (Analyse-it for Microsoft Excel; Analyse-it Software, ltd., Leeds, England). All values are reported as mean (SD).

[5] = cited from earlier work
TNF-α, IL2 and IL6 = settings: anticipated; nicotine 0-5 mg/kg after surgical incision
postoperative pain = test system: postoperative pain
Description: as §1, §2
Five minutes after extubation and every 5 minutes thereafter for 60 minutes, the patient was asked to report the pain that they were experiencing with a numerical analog score from 0-10. A pain report was also obtained at 2 and 24 hours. A PCA pump was inserted into the patient's intravenous circuit prior to emergence from anesthesia. […] No other postoperative analgesic medications were used.
The data were analyzed per protocol. Two subjects from whom informed consent was obtained were not studied for postoperative pain. In one case because of a protocol violation in the standard anesthetic the patient was not randomized and in the second case, the anesthesiologist was not certain of study drug dose. The decision to exclude these patients was made prior to the postoperative period and this no data was obtained.
as §3

[6] = test system: post-incisional pain, injured hind paw; settings: for Meas (von Frey response): IP, individual measurements
[7] = test system: antinociceptive action of nicotine; settings: in vivo; cited from earlier work
[8] = test system: tail flick antinociception; settings: cited from earlier work
[9] = test system: α4β2 type nicotinic receptors; settings: binds more tightly; cited from earlier work
[10] = 3 mg intranasally (Guthrie, 1999)

CN1CCCC1c1cccnc1 (stereo not drawn) [nicotine]
average increase in systolic blood pressure [1]: 7 mM of mercury
change in diastolic blood pressure [1]: no change
change in heart rate [1]: no change
incidence of nausea and vomiting compared with placebo [2]: did not differ
benefit from pre-operative administration (expected) (post-incisional pain; 2 hours prior to hind-paw surgery): no benefit
analgesic response with constant infusion (expected) (post-incisional pain; micro-osmotic pump vs bolus injection): more stable level of analgesic response
morphine used during the first 24 hours after surgery ([3]; nicotine nasal spray 3 mg, difference vs placebo not statistically significant): 41 ± 9 mg
cumulative morphine utilization during the first hour ([3]; nicotine nasal spray 3 mg, mean (SD), P<0.05 vs control): 6 (5) mg
overall morphine usage compared to the placebo group ([3]; nicotine nasal spray 3 mg, p<0.01): about half
reduction in morphine requirement in the first hour ([3]; nicotine vs placebo): 50%
systolic blood pressure compared with placebo ([4]; first hour after surgery): lower systolic blood pressure
diastolic blood pressure compared with placebo ([4]; first postoperative hour): no difference
heart rate compared with placebo ([4]; first postoperative hour): no difference
systolic blood pressure ([4]; first postoperative hour, mean (SD), placebo 122 (3), P<0.001): 105 (3)
hemodynamic consequences of a single dose of nicotine ([4]; pilot study): No hemodynamic consequences have been identified
arterial peak concentration [5, 10]: 100 µM
steady state venous concentration [5, 10]: 30 µM
time to peak effect ([5]; intranasal): five
time until effect is dissipated ([5]; intranasal): about one
peak withdrawal latency compared with saline group (tolerance to morphine; morphine infusion 2 mg/kg/hr, data not shown): higher
tolerance to morphine after pretreatment with a single dose of nicotine (tolerance to morphine; nicotine 1.5 mg/kg, morphine continuous infusion 18 hours, P<0.001): Tolerance is reduced
levels of TNF-α, IL2 and IL6 compared with placebo group (expected) (TNF-α, IL2 and IL6): lower levels
peak pain scores (VAS, out of 10) (postoperative pain; 20 non-smoking women after gynecological surgery, reduced from 8 (placebo)): 5
time at which peak pain score occurred (postoperative pain; after surgery, nicotine nasal spray 3 mg, PCA morphine): 35 min
peak pain score (numerical analog score 0-10) (postoperative pain; nicotine nasal spray 3 mg at end of surgery, PCA morphine available, first hour, mean (SD)): 5.3 (1.6) units
pain score twenty-four hours after emergence (postoperative pain; nicotine nasal spray 3 mg single dose, PCA morphine, mean (SD), P<0.01 vs placebo): 1.5 (0.5)
pain scores during the first hour compared with placebo (postoperative pain; nicotine nasal spray just prior to emergence, P<0.001): lower pain scores at all times during the first hour
average VAS score in the first hour (postoperative pain; preliminary data set, placebo 6.5): approximately 4.5
duration of analgesic effect (postoperative pain; single 3 mg intranasal dose, last assessment in the study): at least 24 hours
Meas (von Frey response) ([6]; Morphine 0, Nicotine 0.5 (mg)): 0 gms (4×) and 0.25 gms
Meas (von Frey response) ([6]; Morphine 0, Nicotine 1 (mg)): 1.95 gms (2×) and 2.7 gms (3×)
Meas (von Frey response) ([6]; Morphine 0, Nicotine 1.5 (mg)): 2.7 gms (2×) and 4.9 gms (2×) and 4.65 gms
Meas (von Frey response) ([6]; Morphine 0, Nicotine 2 (mg)): 2.7 gms (3×) and 4.9 gms (2×)
Meas (von Frey response) ([6]; Morphine 0, Nicotine 3 (mg), upper threshold 15): 15 gms
Meas (von Frey response) ([6]; Morphine 0, Nicotine 5 (mg), upper threshold 15): 15 gms
ED20 for primary hyperalgesia ([6]; single IP injection): 1.5 mg/kg

C[N+](C)(C)CCCCCC[N+](C)(C)C [hexamethonium]
effect on the antinociceptive action of nicotine [7]: no effect

CCN1C[C@]2(COC(=O)c3ccccc3N3C(=O)C[C@H](C)C3=O)CC[C@H](OC)[C@@]34[C@@H]5C[C@H]6[C@H](OC)[C@@H]5[C@](O)(C[C@@H]6OC)[C@](O)([C@@H](OC)[C@H]23)[C@@H]14 [MLA]
effect on the antinociceptive response to nicotine ([8]; tail flick assay): no effect

CN1CC[C@]23c4c5ccc(O)c4O[C@H]2[C@@H](O)C=C[C@H]3[C@H]1C5 [morphine]
reduction in peak effect (plateau of analgesic action) (tolerance to morphine; morphine 2 mg/kg/hr subcutaneous pump, nicotine 1 mg/kg IP or saline, heat withdrawal latency, 18 hour period): 64±14%
antinociceptive efficacy alone ([6]; 129J strain relatively insensitive to morphine): relatively ineffective alone
Meas (von Frey response) ([6]; Morphine 0.1 mg/kg, Nicotine 0): 1.8 gms (2×) and 0.75 gms (2×) and 2.95 gms
Meas (von Frey response) ([6]; Morphine 1 mg/kg, Nicotine 0): 1.95 gms (3×) and 1.7 gms and 0.9 gms and 5.2 gms (2×) and 5.95 gms and 0.75 gms and 2.95 gms
Meas (von Frey response) ([6]; Morphine 5 mg/kg, Nicotine 0): 0.9 gms (3×) and 1.1 gms (2×) and 7.9 gms (3×) and 7.65 gms (2×)
Meas (von Frey response) ([6]; Morphine 10 mg/kg, Nicotine 0): 1.1 gms (3×) and 0.45 gms and 2.15 gms
Meas (von Frey response) ([6]; Morphine 13 mg/kg, Nicotine 0): 4.65 gms (2×) and 7.65 gms (3×)
Meas (von Frey response) ([6]; Morphine 20 mg/kg, Nicotine 0): 7.9 gms and 4.9 gms (3×) and 8.1 gms

CNCC/C=C/c1cccnc1 [metanicotine]
binding selectivity for α4β2 over α3β4, α7 or muscle type nicotinic receptors [9]: over 10,000 times
antinociception in the tail flick assay ([8]; dose of 10 mg/kg): midrange antinociception
